Assay results reported in patent US20260022380A1, “GENETIC MODULATORS OF KRAS PROTEIN EXPRESSION AND THEIR USES” (Northwestern University, priority 2024, published 2026).

How the values were obtained:
G12V KRAS in SW480 cells = assay: KRAS protein expression after ELOVL6i treatment at different concentrations (immunoblot); assay type: cell-based, human; conditions: FIG. 2G
Experimental: Whole-cell extracts were prepared using RIPA buffer (Sigma, #R0278) supplemented with protease and phosphatase inhibitor cocktail (Thermo Fisher Scientific, #78442) on ice for 20 minutes. Subsequently, the lysates were centrifuged at 10,000 g for 20 minutes, and the protein concentration was determined using the BCA assay (Thermo Fisher Scientific, #A55864). The proteins were separated on 4-15% precast protein gels (Bio-Rad, #4568084) in 1×-Tris-Glycine-SDS buffer (Bio-Rad, #1610772) at a constant voltage of 100V and transferred onto nitrocellulose membrane (Bio-Rad, #1620115) using 1× Tris-Glycine Buffer (Bio-Rad, 1610734) at 100V for 1 hour. Following transfer, membrane was blocked in 5% skim milk for 1 hour, then incubated at 4° C. with primary antibodies. Detection was performed using horseradish peroxidase (HRP)-conjugated secondary antibodies. Blots were visualized with chemiluminescent substrate (Thermo Fisher Scientific, #34580) using Azure imaging system. Immunoblots were quantified using ImageJ.

[1] = test system: mCherry-G12V KRAS expressing HT29 cells; assay: mCherry-tagged G12V KRAS protein level after ELOVL6i treatment; assay type: cell-based, human; conditions: FIGS. 11A and 11B
Experimental: To label intracellular markers, live cells were fixed with 4% paraformaldehyde (Fisher Scientific, #AA47377-9M) for 20 minutes, washed with PBS, permeabilized with 0.2% Triton X-100 (Sigma, X100-100ML) for 10 minutes, blocked with PBS with 2% BSA (flow buffer) for 30 minutes then stained with the antibodies prepared in flow buffer. Cells were incubated with primary antibodies for 1-hour at room temperature. Primary antibodies used were: anti-KRAS (Proteintech, #12063-1-AP), anti-phospho-ERK (Thr202/Tyr204) (Cell Signaling Technology, #4370S), and anti-ERK (Cell Signaling Technology, #4695S). After wash with flow buffer, cells were incubated with secondary antibodies for 30 minutes. […] Stained samples and the isotype control were analyzed immediately by flow cytometers. Data were analyzed using the FlowJo software. MFI was defined as median fluorescence across the cell population.
HT29 and SW480 cells were transduced with mCherry-WT-KRAS (Addgene, #153335) or mCherry-G12V-KRAS (Addgene, #153336) plasmid for stable mCherry-KRAS expression. […] Images were analyzed by Fiji Image J. The mean fluorescence intensity of mCherry-KRAS was normalized to the time zero measurement of each FOV to generate relative mCherry-KRAS expression across the experiment's timespan. […]

mCherry-G12V KRAS = assay: Live-cell imaging of mCherry-KRAS and plasma membrane co-localization; assay type: cell-based, human; conditions: 40 μM, FIGS. 2H-2K
Experimental: HT29 and SW480 cells were transduced with mCherry-WT-KRAS (Addgene, #153335) or mCherry-G12V-KRAS (Addgene, #153336) plasmid for stable mCherry-KRAS expression. Cells were seeded onto 35 mm glass bottom dish (Fisher Scientific, #NC0794151). ELOVL6 inhibitor was added at 40 μM prior to imaging. Cells were stained with CellBrite™ Steady 488 membrane dye (Biotium, #30106 T) for 30 minutes. Live cells were imaged using Nikon W1 dual cam spinning disk confocal with TIRF and a 100× objective. Five random fields of view (FOV) were selected, and an image/FOV was taken every 15 minutes for a duration of 20 hours. Images were analyzed by Fiji Image J. The mean fluorescence intensity of mCherry-KRAS was normalized to the time zero measurement of each FOV to generate relative mCherry-KRAS expression across the experiment's timespan. The Pearson's coefficient plugin JACop from ImageJ was used for quantification co-localization between mCherry-KRAS and cell membrane dye.

[2] = test system: GTP-bound KRAS in G12V KRAS expressing HEK293 cells; assay: RAS activation assay (active-KRAS pull-down) in HEK293 cells; assay type: cell-based, human; conditions: 40 μM for 3 days, FIG. 3D
Experimental: (§1) Cells were treated with 40 μM of ELOVL6 inhibitor ELOVL6-IN-2 (MCE, HY-12146) for 3days and collected for protein extraction. RAS activity was assessed utilizing the active Ras pull-down and detection kit (Thermo Fisher Scientific, #16117). In brief, GST-RAF1 RBD and glutathione agarose resin were combined with whole-cell lysates and incubated on a rotator for 1 hour at 4° C. This was followed by three washes and elution with 2× SDS-PAGE loading buffer. The eluted samples were then subjected to western blotting to detect GTP-RAS.

[3] = test system: GTP-bound KRAS in cancer cell lines harboring G12V or G12D KRAS; assay: RAS activation assay (active-KRAS pull-down) in mutant KRAS cancer cell lines; assay type: cell-based, human; conditions: multiple cancer cell lines harboring G12V or G12D KRAS, 40 μM for 3 days, FIGS. 3E-3G
Experimental: as §1

SW403 xenograft = assay: SW403 G12V KRAS mutant xenograft study; assay type: in vivo
Experimental: To establish cell-line-derived xenograft models, 5 million cells (SW403 and NCI-H441) suspended in PBS were subcutaneously injected to the right flanks of 8-week-old female athymic nude (nu/nu) mice purchased from the Jackson Laboratory. Once tumor reached approximately 50 mm3 volume, mice were randomized into groups (n=10) and treated with vehicle control (corn oil) or ELOVL6 inhibitor (dissolved in corn oil) dosed at 300 mg/kg. Treatment was administered twice daily by oral gavage. Tumor growth was measured 2-3 times per week using a caliper. Tumors were collected at the indicated timepoint and at the endpoint for analysis. For KRAS downstream signaling analysis, tumors were dissociated into single cells for flow cytometry analysis and protein was extract for western blotting.
Tumor specimens were fixed in 10% formalin for at least 24 hours. Then washed with PBS and stored in 70% ethanol until paraffin embedding. Slides were stained using Dako Autostainer Plus. The following antibodies were used for staining: KRAS (Proteintech, #12063-1-AP), Ki-67 (Abcam, Ab15580), phospho-ERK (Cell Signaling Technology, #4370S), and ERK (Cell Signaling Technology, #4695s). Slides were then incubated with HRP labelled polymer anti-rabbit antibody (Agilent, K4003). All slides were […] through xylene and alcohol, them mounted, and cover slipped. Slides were scanned at 20× using a Nano Zoomer 2.0 HT (Hamamatsu Photonics).

[4] = test system: human cell lines harboring KRAS mutations (colorectal, lung, pancreatic cancers); assay: Cell viability assay (CellTiter-Glo, 7-day ELOVL6i treatment) across a cell line panel; assay type: cell-based
Experimental: (§2) The cells were seeded in triplicates in 96-well plates at a density of 5,000-10,000 cells per well and treated with the indicated concentrations of ELOVL6 inhibitor. Assay plates were subjected to daily media exchange with fresh ELOVL6 inhibitor. Following treatment, cell viability was assessed after a period of 1-week treatment using the CellTiter-Glo Luminescent Cell Viability Assay (Promega, #G7571) with luminescence readings taken on a Cytation™ 3 cell imaging multi-mode reader (Fisher Scientific). The background value was indicated by cell medium without cells and was subtracted from the raw data. The fold change in cell viability was determined relative to control cells that received no treatment.

[5] = test system: cellular lipid composition (ELOVL6 fatty acid elongation); assay: Lipidomic analysis (targeted fatty acids and shotgun lipidomics) of ELOVL6i treated cells; assay type: cell-based; conditions: 40 μM for 1-week
Experimental: Cells were treated with ELOVL6 inhibitor at 40 μM for 1-week. Cell pellets were stored at −80° C. until sent for lipidomic analysis. Mass spectrometry-based shotgun untargeted lipid analysis and targeted fatty acids analysis were conducted by Lipotype (Dresden, Germany). Lipids were extracted using chloroform and methanol procedure as previously described (38). Samples were analyzed by automated direct infusion and orbitrap mass spectrometry. LipotypeXplorer was used for identification of lipids in the raw mass spectra (39). Alterations in lipid composition were determined based on mol % of total lipid normalized to untreated control samples.

[6] = test system: G12V or G12D KRAS cell lines; assay: Lipid add-back cell viability experiment; assay type: cell-based; conditions: 200 μM oleic acid or 20 μM stearic acid supplemented medium, FIGS. 5G and 19
Experimental: as §2
For the lipid-addback experiment, cells were treated with the indicated concentrations of ELOVL6 inhibitor in 200 μM of oleic acid (Sigma, #O1383-1G) or 20 μM of stearic acid (Sigma, #S4751-1G) supplemented medium.

[7] = targeted lipidomic analysis, versus vehicle-treated controls, FIGS. 5A and 16

SMILES: Cc1[nH]n(-c2ccc(OC(F)(F)F)cc2)c(=O)c1C1(C(F)(F)F)C(=O)N(c2ccccc2)C2=C1C(=O)CC(C)(C)C2 (centres unmarked) [ELOVL6i]
- effect on G12V KRAS protein level (G12V KRAS in SW480 cells): concentration-dependent effect
- lowering of mCherry-G12V KRAS [1]: dose-dependent effects
- mCherry-G12V KRAS co-localization with cell membrane (mCherry-G12V KRAS): Significant reductions
- mCherry-G12V KRAS fluorescence intensity (mCherry-G12V KRAS): Significant reductions
- GTP-bound KRAS [2]: significantly reduced
- cellular GTP-bound KRAS [3]: consistently reduced
- ERK phosphorylation (immunohistochemistry) (SW403 xenograft; SW403 tumor samples, FIG. 4E): significant decrease
- expression of mutant KRAS (immunohistochemistry) (SW403 xenograft; SW403 tumor samples, FIG. 4E): significant decrease
- ki-67 proliferation marker (immunohistochemistry) (SW403 xenograft; SW403 tumor samples, FIG. 4E): significant decrease
- ERK phosphorylation in tumor samples (SW403 xenograft; SW403 tumors, western blot and flow cytometry after 3-day, 1-week, 3-week treatment, FIGS. 13B-13D): time-dependent reduction
- survival (SW403 xenograft; SW403 xenograft, oral, 300 mg/kg, FIG. 4D): prolonged survival
- tumor growth rate (SW403 xenograft; SW403 xenograft, oral, 300 mg/kg, FIGS. 4B-4D): significant reduction
- tolerability (SW403 xenograft; mice bearing SW403 xenograft, oral, 300 mg/kg, FIG. 13A): well tolerated
- sensitivity of mutant KRAS-expressing cells versus WT KRAS expressing cells ([4]; 7-day treatment, FIGS. 4G-4I and 14): more sensitive
- cell viability across KRAS variants ([4]; G12V, G12D, G13D, G12C, G12R, Q61X, A146T cell lines, 7-day treatment, FIG. 4F): impacted cell viability across all KRAS variants tested
- sensitivity of pancreatic cancer cell lines (antiproliferative effect) ([4]; panel of human KRAS mutant cell lines): especially sensitive
- long-chain PUFA ([5]; ELOVL6i treated cells): increases
- sphingolipids, including sphingomyelin (SM) and Hexosyl-Ceramide (HexCer) ([5]; shotgun lipidomic analysis, FIG. 5C): significant reduction
- levels of PtdSer ([5]; shotgun lipidomic analysis, FIG. 5E): significantly altered
- glycerolipid abundance, including diacylglycerol (DAG) and triacylglycerol (TAG) ([5]; shotgun lipidomic analysis, FIGS. 5B and 18A): Notable increases
- levels of oleate [5, 7]: significant reduction
- levels of stearate [5, 7]: significant reduction
- cell viability with exogenous oleic acid or stearic acid supplementation during ELOVL6i treatment [6]: enhanced cell viability
